Data on 26 compounds can be found in patent US6506772B1, “Substituted [1,2,4]triazolo[1,5a]pyridine derivatives with activity as adenosine receptor ligands” (Hoffmann-La Roche Inc., priority 2000, dated 2003).

In one experiment the target is T1, HA1 adenosine receptor (Homo sapiens, UniProt P30542).
T1 sequence (P30542 1-326): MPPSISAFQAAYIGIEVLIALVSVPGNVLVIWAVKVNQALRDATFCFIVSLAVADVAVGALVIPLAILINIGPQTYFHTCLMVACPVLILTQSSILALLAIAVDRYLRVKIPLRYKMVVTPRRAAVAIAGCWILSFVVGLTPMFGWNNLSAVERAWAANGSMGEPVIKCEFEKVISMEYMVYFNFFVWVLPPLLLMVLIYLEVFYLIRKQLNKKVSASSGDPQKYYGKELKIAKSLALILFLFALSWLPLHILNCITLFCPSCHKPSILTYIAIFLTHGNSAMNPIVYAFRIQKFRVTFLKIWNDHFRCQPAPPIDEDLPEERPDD
Put plainly: Human adenosine A1 receptor affinity (Ki hA1). In kind it is binding. The following applies: affinity to human adenosine A1 receptor.

Experiment [1] has as its target T2, human adenosine A2A receptor (Homo sapiens, UniProt P29274).
T2 construct: expressed in transfected cells; host or cells: CHO cells, Semliki Forest virus expression system; membrane preparation
Briefly: Human adenosine A2A receptor [3H]-SCH-58261 binding assay. As to conditions: for Ki: affinity to human adenosine A2A receptor, read-out: Ki HA2A; for selectivity (A1/A2a): calculated ratio of the affinity to the HA1 receptor to the HA2a receptor.

T2 sequence (P29274 whole entry): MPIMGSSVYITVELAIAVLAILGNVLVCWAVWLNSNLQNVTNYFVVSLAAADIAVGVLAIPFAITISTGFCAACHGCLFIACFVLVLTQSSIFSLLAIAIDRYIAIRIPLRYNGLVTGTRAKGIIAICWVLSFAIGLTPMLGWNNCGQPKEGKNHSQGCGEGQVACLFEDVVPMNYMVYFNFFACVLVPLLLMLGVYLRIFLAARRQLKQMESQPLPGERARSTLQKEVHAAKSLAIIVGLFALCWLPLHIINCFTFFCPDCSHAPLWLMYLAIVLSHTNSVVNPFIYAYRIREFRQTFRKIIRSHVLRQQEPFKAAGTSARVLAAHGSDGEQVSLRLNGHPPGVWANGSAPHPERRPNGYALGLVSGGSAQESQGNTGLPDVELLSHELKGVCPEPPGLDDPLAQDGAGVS

`CC(C)N(Cc1ccccc1)C(=O)c1cc(N)n2nc(-c3ccc(Cl)o3)nc2c1` [Example 239, 5-Amino-2-(5-chloro-furan-2-yl)-[1,2,4]triazolo[1,5-a]pyridine-7-carboxylic acid benzyl-isopropyl-amide] yielded a Ki at HA1 adenosine receptor of 25.1 nM. In addition, in experiment [1], the Ki is 1.7 nM and the “selectivity (A1/A2a)” value was 14.6.

Compound `CN(C(=O)c1cc(N)n2nc(-c3ccc(Cl)o3)nc2c1)C1CCCCC1` [Example 242, 5-Amino-2-(5-chloro-furan-2-yl)-[1,2,4]triazolo[1,5-a]pyridine-7-carboxylic acid cyclohexyl-methyl-amide] registered a Ki at HA1 adenosine receptor of 124 nM. Moreover, in experiment [1], the Ki amounted to 6.5 nM and the “selectivity (A1/A2a)” value was 19.0.

`CCN(C(=O)c1cc(N)n2nc(-c3ccc(Cl)o3)nc2c1)C1CCCCC1` [Example 243, 5-Amino-2-(5-chloro-furan-2-yl)-[1,2,4]triazolo[1,5-a]pyridine-7-carboxylic acid cyclohexyl-ethyl-amide] displayed a Ki at HA1 adenosine receptor of 95.6 nM. Moreover, in experiment [1], the Ki came to 3.3 nM and the “selectivity (A1/A2a)” value was 28.6.

The compound `Nc1cc(C(=O)NCc2ccc(Cl)cc2)cc2nc(-c3ccc(Cl)o3)nn12` [Example 244, 5-Amino-2-(5-chloro-furan-2-yl)-[1,2,4]triazolo[1,5-a]pyridine-7-carboxylic acid 4-chloro-benzylamide] showed a Ki at HA1 adenosine receptor of 190 nM. Besides, in experiment [1], the Ki is 218 nM and the “selectivity (A1/A2a)” value is 0.9.

For the compound `Nc1cc(C(=O)NCc2ccc(F)cc2)cc2nc(-c3ccc(Cl)o3)nn12` [Example 245, 5-Amino-2-(5-chloro-furan-2-yl)-[1,2,4]triazolo[1,5-a]pyridine-7-carboxylic acid 4-fluoro-benzylamide], the Ki at HA1 adenosine receptor turned out to be 289 nM; in experiment [1], 155 nM. In addition, the “selectivity (A1/A2a)” value in experiment [1] is reported as 1.9.

`COc1ccccc1CNC(=O)c1cc(N)n2nc(-c3ccc(Cl)o3)nc2c1` [Example 246, 5-Amino-2-(5-chloro-furan-2-yl)-[1,2,4]triazolo[1,5-a]pyridine-7-carboxylic acid 2-methoxy-benzylamide] returned a Ki at HA1 adenosine receptor of 71.7 nM. In experiment [1], the inhibitory constant (Ki) came out at 24 nM and the “selectivity (A1/A2a)” value is 3.0.

Take `CN(CC1CC1)C(=O)c1cc(N)n2nc(-c3ccc(Cl)o3)nc2c1` [Example 247, 5-Amino-2-(5-chloro-furan-2-yl)-[1,2,4]triazolo[1,5-a]pyridine-7-carboxylic acid cyclopropylmethyl-methyl-amide]: the Ki on HA1 adenosine receptor came out at 161 nM; in experiment [1], 9.2 nM. In experiment [1], the “selectivity (A1/A2a)” value is recorded as 17.6.

On to `CN(C)C(=O)c1cc(N)n2nc(-c3ccc(Cl)o3)nc2c1` [Example 248, 5-Amino-2-(5-chloro-furan-2-yl)-[1,2,4]triazolo[1,5-a]pyridine-7-carboxylic acid dimethylamide], for which the values for the Ki (at HA1 adenosine receptor; in experiment [1]) were 601 nM and 44.3 nM, respectively. Also, the “selectivity (A1/A2a)” value in experiment [1] is reported as 13.6.

As to `Nc1cc(C(=O)N2CCC2)cc2nc(-c3ccc(Cl)o3)nn12` [Example 249, [5-Amino-2-(5-chloro-furan-2-yl)-[1,2,4]triazolo[1,5-a]pyridin-7-yl]-azetidin-1-yl-methanone], the affinity on HA1 adenosine receptor, expressed as Ki, was 6210 nM. Moreover, in experiment [1], the Ki came out at 2090 nM and the “selectivity (A1/A2a)” value is reported as 3.0.

As for `CCN(C)C(=O)c1cc(N)n2nc(-c3ccc(Cl)o3)nc2c1` [Example 250, 5-Amino-2-(5-chloro-furan-2-yl)-[1,2,4]triazolo[1,5-a]pyridine-7-carboxylic acid ethyl-methyl-amide], the Ki on HA1 adenosine receptor was determined as 459 nM. Further, in experiment [1], the Ki worked out at 19.1 nM and the “selectivity (A1/A2a)” value is 24.0.

For the compound `C=CCN(C)C(=O)c1cc(N)n2nc(-c3ccc(Cl)o3)nc2c1` [Example 251, 5-Amino-2-(5-chloro-furan-2-yl)-[1,2,4]triazolo[1,5-a]pyridine-7-carboxylic acid allyl-methyl-amide], the Ki at HA1 adenosine receptor is 360 nM. In experiment [1], the Ki is 14.7 nM and the “selectivity (A1/A2a)” value was 24.5.

Turning to `CCCN(C)C(=O)c1cc(N)n2nc(-c3ccc(Cl)o3)nc2c1` [Example 252, 5-Amino-2-(5-chloro-furan-2-yl)-[1,2,4]triazolo[1,5-a]pyridine-7-carboxylic acid methyl-propyl-amide], the Ki on HA1 adenosine receptor amounted to 438 nM. Also, in experiment [1], the Ki was 15.5 nM and the “selectivity (A1/A2a)” value is listed as 28.3.

The compound `Nc1cc(C(=O)N2CC=CCC2)cc2nc(-c3ccc(Cl)o3)nn12` [Example 253] came in with a Ki at HA1 adenosine receptor of 276 nM. In experiment [1], the Ki was 9.5 nM and the “selectivity (A1/A2a)” value is listed as 28.9.

Regarding `CC1CCCN1C(=O)c1cc(N)n2nc(-c3ccc(Cl)o3)nc2c1` (stereo not drawn) [Example 254, [5-Amino-2-(5-chloro-furan-2-yl)-[1,2,4]triazolo[1,5-a]pyridin-7-yl]-(2-methyl-pyrrolidin-1-yl)-methanone], the Ki on HA1 adenosine receptor stood at 503 nM. In addition, in experiment [1], the Ki came out at 11.2 nM and the “selectivity (A1/A2a)” value was 44.8.

On to `CCN(C(=O)c1cc(N)n2nc(-c3ccc(Cl)o3)nc2c1)C(C)C` [Example 255, 5-Amino-2-(5-chloro-furan-2-yl)-[1,2,4]triazolo[1,5-a]pyridine-7-carboxylic acid ethyl-isopropyl-amide], for which the Ki at HA1 adenosine receptor worked out at 92.5 nM. Also, in experiment [1], the Ki was found to be 3.2 nM and the “selectivity (A1/A2a)” value is given as 28.9.

At HA1 adenosine receptor, `Nc1cc(C(=O)N2CCSCC2)cc2nc(-c3ccc(Cl)o3)nn12` [Example 256, [5-Amino-2-(5-chloro-furan-2-yl)-[1,2,4]triazolo[1,5-a]pyridin-7-yl]-thiomorpholin-4-yl-methanone] displayed a Ki of 430 nM. Moreover, in experiment [1], the Ki came to 24.4 nM and the “selectivity (A1/A2a)” value is recorded as 17.7.

For the compound `CC1CN(C(=O)c2cc(N)n3nc(-c4ccc(Cl)o4)nc3c2)CC(C)O1` (stereo not drawn) [Example 257, [5-Amino-2-(5-chloro-furan-2-yl)-[1,2,4]triazolo[1,5-a]pyridin-7-yl]-(2,6-dimethyl-morpholin-4-yl)-methanone], the figures for the Ki (at HA1 adenosine receptor; in experiment [1]) were 819 nM and 28.9 nM, respectively. In addition, the “selectivity (A1/A2a)” value in experiment [1] is recorded as 28.3.

As to `CC1CCC(C)N1C(=O)c1cc(N)n2nc(-c3ccc(Cl)o3)nc2c1` (stereo not drawn) [Example 258, [5-Amino-2-(5-chloro-furan-2-yl)-[1,2,4]triazolo[1,5-a]pyridin-7-yl]-(2,5-dimethyl-pyrrolidin-1-yl)-methanone], the Ki on HA1 adenosine receptor came to 221 nM; in experiment [1] it was 7.2 nM. Further, in experiment [1], the “selectivity (A1/A2a)” value is on record as 30.6.

With `NC(=O)C1CCN(C(=O)c2cc(N)n3nc(-c4ccc(Cl)o4)nc3c2)CC1` [Example 259, 1-[5-Amino-2-(5-chloro-furan-2-yl)-[1,2,4]triazolo[1,5-a]pyridine-7-carbonyl]-piperidine-4-carboxylic acid amide], the inhibitory constant (Ki) at HA1 adenosine receptor was 540 nM; in experiment [1] it was 119 nM. Moreover, the “selectivity (A1/A2a)” value in experiment [1] is listed as 4.5.

With `COCCN(CCOC)C(=O)c1cc(N)n2nc(-c3ccc(Cl)o3)nc2c1` [Example 260, 5-Amino-2-(5-chloro-furan-2-yl)-[1,2,4]triazolo[1,5-a]pyridine-7-carboxylic acid bis-(2-methoxy-ethyl)-amide], the Ki on HA1 adenosine receptor is 270 nM; in experiment [1], 13.4 nM. For the same compound, in experiment [1], the “selectivity (A1/A2a)” value was 20.2.

On to `CCN(Cc1ccccc1)C(=O)c1cc(N)n2nc(-c3ccc(Cl)o3)nc2c1` [Example 261, 5-Amino-2-(5-chloro-furan-2-yl)-[1,2,4]triazolo[1,5-a]pyridine-7-carboxylic acid benzyl-ethyl-amide], for which the affinity at HA1 adenosine receptor corresponds to a Ki of 37.7 nM. Also, in experiment [1], the Ki is 2.6 nM and the “selectivity (A1/A2a)” value is 14.7.

`CCN(Cc1ccncc1)C(=O)c1cc(N)n2nc(-c3ccc(Cl)o3)nc2c1` [Example 262, 5-Amino-2-(5-chloro-furan-2-yl)-[1,2,4]triazolo[1,5-a]pyridine-7-carboxylic acid ethyl-pyridin-4-ylmethyl-amide] gave a Ki on HA1 adenosine receptor of 107 nM. Besides, in experiment [1], the Ki amounted to 2.9 nM and the “selectivity (A1/A2a)” value is given as 36.8.

As for `Nc1cc(C(=O)N2CC=C(c3ccccc3)CC2)cc2nc(-c3ccc(Cl)o3)nn12` [Example 263, [5-Amino-2-(5-chloro-furan-2-yl)-[1,2,4]triazolo[1,5-a]pyridin-7-yl]-(4-phenyl-3,6-dihydro-2H-pyridin-1-yl)-methanone], the Ki on HA1 adenosine receptor is 304 nM. For the same compound, in experiment [1], the Ki is 39.8 nM and the “selectivity (A1/A2a)” value is reported as 7.6.

Regarding `CCN(C)C(=O)c1cc(N)n2nc(-c3ccc(Br)o3)nc2c1` [Example 264, 5-Amino-2-(5-bromo-furan-2-yl)-[1,2,4]triazolo[1,5-a]pyridine-7-carboxylic acid ethyl-methyl-amide], the figures for the Ki (at HA1 adenosine receptor; in experiment [1]) were 277 nM and 6.5 nM, respectively. In addition, the “selectivity (A1/A2a)” value in experiment [1] was 42.7.

On HA1 adenosine receptor, `Nc1cc(C(=O)N2CC=CC2)cc2nc(-c3ccc(Br)o3)nn12` [Example 265, [5-Amino-2-(5-bromo-furan-2-yl)-[1,2,4]triazolo[1,5-a]pyridin-7-yl]-(2,5-dihydro-pyrrol-1-yl)-methanone] yielded a Ki of 564 nM. In addition, in experiment [1], the Ki came out at 7.4 nM and the “selectivity (A1/A2a)” value is given as 76.2.

Regarding `C#CCN(C)C(=O)c1cc(N)n2nc(-c3ccc(Br)o3)nc2c1` [Example 266, 5-Amino-2-(5-bromo-furan-2-yl)-[1,2,4]triazolo[1,5-a]pyridine-7-carboxylic acid methyl-prop-2-ynyl-amide], the Ki at HA1 adenosine receptor came out at 246 nM. In experiment [1], the Ki stood at 3.1 nM and the “selectivity (A1/A2a)” value is listed as 79.4.
